Assay results from ChEMBL document CHEMBL1201862, “PubChem BioAssay data set” (2004).
The source made the active and inactive calls.

Legend:
[1] = biological target: Dual specificity tyrosine-phosphorylation-regulated kinase 1A (Rattus norvegicus, UniProt Q63470); assay type: biochemical, Homo sapiens
[2] = biological target: Protein disulfide-isomerase (Homo sapiens, UniProt P07237); test: inhibition of PDI-driven insulin aggregation – biochemical, turbidity, absorbance, cherry-picked samples, dose response (AID 602350); assay type: functional
[3] = Vero cell cytotoxicity, cytotoxicity control for M. tuberculosis inhibitor project, purified and synthesized samples, set 3 (AID 504684); assay type: functional
[4] = THP-1 cell cytotoxicity, cytotoxicity control, set 4 (AID 504911); assay type: functional; conditions: Mycobacterium tuberculosis
[5] = THP-1 cell cytotoxicity, dose response, cytotoxicity control, set 3 (AID 504852); assay type: functional; conditions: Mycobacterium tuberculosis
[6] = Vero cell cytotoxicity, dose response, cytotoxicity control for M. tuberculosis growth inhibitor project, Vero cells, purified and synthesized compounds, set 4 (AID 504854); assay type: functional; conditions: Mycobacterium tuberculosis
[7] = biological target: Tyrosine-protein kinase Lck (Homo sapiens, UniProt P06239); assay type: functional;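 further: lck was assayed as one member of a kinase panel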
[8] = biological target: Mast/stem cell growth factor receptor Kit (Homo sapiens, UniProt P10721); assay type: functional;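 further: KIT entry within a kinase panel assay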
Chain of Mast/stem cell growth factor receptor Kit (P10721 whole entry): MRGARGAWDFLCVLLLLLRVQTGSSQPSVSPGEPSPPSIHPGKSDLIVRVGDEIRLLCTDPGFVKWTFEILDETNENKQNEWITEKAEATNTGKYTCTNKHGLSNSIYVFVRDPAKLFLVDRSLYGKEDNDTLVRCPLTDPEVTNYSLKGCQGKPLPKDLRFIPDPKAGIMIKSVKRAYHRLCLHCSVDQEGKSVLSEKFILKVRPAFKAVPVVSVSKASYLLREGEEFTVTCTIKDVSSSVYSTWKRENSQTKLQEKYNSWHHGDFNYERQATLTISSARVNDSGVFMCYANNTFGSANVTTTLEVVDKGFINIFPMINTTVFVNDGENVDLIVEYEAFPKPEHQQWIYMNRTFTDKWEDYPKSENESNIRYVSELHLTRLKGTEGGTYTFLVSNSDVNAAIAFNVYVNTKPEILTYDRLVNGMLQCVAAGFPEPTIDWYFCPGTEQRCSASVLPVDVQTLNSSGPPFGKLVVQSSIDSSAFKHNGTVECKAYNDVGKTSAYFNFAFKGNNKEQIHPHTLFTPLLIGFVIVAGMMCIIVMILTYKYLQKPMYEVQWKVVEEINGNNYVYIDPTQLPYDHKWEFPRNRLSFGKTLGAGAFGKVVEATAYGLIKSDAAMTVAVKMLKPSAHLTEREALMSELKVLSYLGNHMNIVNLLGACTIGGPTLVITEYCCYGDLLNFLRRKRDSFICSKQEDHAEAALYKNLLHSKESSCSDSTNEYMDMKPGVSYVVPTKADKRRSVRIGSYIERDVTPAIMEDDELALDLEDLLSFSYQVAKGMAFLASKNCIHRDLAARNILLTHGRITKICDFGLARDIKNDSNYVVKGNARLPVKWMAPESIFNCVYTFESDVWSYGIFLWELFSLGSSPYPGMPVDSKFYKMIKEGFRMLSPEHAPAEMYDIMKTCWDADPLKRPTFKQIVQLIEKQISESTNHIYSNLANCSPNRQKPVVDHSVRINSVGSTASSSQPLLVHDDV

[9] = biological target: Tyrosine-protein kinase Lyn (Homo sapiens, UniProt P07948); assay type: functional;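 further: lyn as one member of a kinase panel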
Chain of Tyrosine-protein kinase Lyn (P07948 whole entry): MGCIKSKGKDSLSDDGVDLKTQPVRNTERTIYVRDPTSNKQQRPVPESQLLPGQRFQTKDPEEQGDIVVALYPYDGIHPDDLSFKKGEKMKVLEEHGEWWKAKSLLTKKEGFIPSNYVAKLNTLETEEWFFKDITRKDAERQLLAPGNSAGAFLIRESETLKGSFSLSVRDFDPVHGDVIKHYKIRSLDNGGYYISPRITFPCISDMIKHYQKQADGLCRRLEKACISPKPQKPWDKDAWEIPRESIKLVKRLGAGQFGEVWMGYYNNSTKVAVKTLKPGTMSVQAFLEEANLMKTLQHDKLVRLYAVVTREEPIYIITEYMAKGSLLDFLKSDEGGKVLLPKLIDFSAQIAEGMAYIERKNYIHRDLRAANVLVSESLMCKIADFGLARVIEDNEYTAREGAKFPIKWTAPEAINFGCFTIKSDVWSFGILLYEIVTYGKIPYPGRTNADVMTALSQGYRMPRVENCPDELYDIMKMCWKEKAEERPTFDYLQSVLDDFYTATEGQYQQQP

[10] = biological target: Tyrosine-protein kinase Blk (Homo sapiens, UniProt P51451); assay type: functional;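 further: obtained as one member of a kinome-wide kinase assay panel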
[11] = biological target: Proto-oncogene tyrosine-protein kinase Src (Homo sapiens, UniProt P12931); assay type: functional;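 further: SRC entry within a kinome-wide kinase profiling panel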
[12] = biological target: Receptor-type tyrosine-protein kinase FLT3 (Homo sapiens, UniProt P36888); assay type: functional;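 further: FLT3 was tested as one member of a kinome-wide kinase panel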
Chain of Receptor-type tyrosine-protein kinase FLT3 (P36888 whole entry): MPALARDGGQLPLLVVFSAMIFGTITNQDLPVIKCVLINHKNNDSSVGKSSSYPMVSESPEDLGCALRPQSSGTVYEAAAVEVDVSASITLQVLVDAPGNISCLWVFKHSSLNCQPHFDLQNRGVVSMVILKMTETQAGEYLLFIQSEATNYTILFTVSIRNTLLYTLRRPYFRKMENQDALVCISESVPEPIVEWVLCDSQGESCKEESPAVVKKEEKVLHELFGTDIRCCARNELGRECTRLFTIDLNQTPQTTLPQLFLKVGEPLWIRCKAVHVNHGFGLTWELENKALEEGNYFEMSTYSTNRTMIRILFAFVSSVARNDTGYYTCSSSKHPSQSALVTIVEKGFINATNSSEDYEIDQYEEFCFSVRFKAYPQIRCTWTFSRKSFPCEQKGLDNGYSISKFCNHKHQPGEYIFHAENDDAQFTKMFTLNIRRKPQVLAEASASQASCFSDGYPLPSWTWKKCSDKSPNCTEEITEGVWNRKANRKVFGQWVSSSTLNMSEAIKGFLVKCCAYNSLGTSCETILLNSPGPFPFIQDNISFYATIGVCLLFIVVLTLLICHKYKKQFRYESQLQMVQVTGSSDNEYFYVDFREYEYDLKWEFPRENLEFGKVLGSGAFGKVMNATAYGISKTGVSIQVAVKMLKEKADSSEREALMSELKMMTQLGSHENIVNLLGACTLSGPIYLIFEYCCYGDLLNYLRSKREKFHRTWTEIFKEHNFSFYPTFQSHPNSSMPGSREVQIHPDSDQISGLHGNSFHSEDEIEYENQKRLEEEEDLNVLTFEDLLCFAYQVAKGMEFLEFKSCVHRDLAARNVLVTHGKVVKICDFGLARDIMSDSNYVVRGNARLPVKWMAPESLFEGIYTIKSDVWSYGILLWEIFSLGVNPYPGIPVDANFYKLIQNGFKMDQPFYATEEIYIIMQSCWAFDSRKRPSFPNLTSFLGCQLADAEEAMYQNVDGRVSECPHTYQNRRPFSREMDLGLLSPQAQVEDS

[13] = biological target: Tyrosine-protein kinase ABL1 (Homo sapiens, UniProt P00519); assay type: functional
[14] = biological target: Vascular endothelial growth factor receptor 2 (Homo sapiens, UniProt P35968); assay type: functional
[15] = biological target: Vascular endothelial growth factor receptor 3 (Homo sapiens, UniProt P35916); assay type: functional;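 further: value from a kinome-wide profiling panel, with FLT4 as the panel member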
Chain of Vascular endothelial growth factor receptor 3 (P35916 whole entry): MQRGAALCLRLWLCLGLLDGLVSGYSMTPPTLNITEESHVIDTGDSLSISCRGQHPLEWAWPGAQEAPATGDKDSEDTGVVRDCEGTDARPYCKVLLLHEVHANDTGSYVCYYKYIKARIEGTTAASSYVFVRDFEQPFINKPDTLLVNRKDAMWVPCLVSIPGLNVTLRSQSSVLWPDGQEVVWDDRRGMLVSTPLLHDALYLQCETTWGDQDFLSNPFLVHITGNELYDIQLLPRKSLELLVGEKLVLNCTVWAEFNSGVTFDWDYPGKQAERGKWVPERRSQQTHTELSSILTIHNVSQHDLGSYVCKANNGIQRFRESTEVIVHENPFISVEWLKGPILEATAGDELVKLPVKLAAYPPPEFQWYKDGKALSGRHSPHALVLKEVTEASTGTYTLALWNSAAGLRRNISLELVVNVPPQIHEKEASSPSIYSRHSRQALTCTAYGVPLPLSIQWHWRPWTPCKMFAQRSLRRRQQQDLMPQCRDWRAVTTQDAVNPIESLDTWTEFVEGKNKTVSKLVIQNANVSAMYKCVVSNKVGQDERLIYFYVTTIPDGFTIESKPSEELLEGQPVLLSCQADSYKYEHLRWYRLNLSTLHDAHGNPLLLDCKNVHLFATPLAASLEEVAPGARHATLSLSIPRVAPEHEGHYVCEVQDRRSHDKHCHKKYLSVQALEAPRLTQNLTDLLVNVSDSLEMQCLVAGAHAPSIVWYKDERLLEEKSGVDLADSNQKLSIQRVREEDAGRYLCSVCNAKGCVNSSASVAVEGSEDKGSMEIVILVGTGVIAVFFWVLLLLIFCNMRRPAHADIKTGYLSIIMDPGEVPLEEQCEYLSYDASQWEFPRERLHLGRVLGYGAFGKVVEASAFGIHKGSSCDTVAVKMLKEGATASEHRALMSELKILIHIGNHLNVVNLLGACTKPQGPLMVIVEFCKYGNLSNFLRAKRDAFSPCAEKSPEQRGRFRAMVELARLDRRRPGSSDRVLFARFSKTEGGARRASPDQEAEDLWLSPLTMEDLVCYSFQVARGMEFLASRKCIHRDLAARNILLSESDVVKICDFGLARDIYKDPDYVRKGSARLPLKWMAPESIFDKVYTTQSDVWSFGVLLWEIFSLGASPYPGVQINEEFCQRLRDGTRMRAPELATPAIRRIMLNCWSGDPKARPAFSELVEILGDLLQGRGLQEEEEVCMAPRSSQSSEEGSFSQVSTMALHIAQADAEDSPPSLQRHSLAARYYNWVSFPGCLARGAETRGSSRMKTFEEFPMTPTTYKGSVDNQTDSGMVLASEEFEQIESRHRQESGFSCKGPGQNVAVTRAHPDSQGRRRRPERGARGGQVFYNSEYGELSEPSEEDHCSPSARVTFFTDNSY

[16] = biological target: Tyrosine-protein kinase Fyn (Homo sapiens, UniProt P06241); assay type: functional
Chain of Tyrosine-protein kinase Fyn (P06241 whole entry): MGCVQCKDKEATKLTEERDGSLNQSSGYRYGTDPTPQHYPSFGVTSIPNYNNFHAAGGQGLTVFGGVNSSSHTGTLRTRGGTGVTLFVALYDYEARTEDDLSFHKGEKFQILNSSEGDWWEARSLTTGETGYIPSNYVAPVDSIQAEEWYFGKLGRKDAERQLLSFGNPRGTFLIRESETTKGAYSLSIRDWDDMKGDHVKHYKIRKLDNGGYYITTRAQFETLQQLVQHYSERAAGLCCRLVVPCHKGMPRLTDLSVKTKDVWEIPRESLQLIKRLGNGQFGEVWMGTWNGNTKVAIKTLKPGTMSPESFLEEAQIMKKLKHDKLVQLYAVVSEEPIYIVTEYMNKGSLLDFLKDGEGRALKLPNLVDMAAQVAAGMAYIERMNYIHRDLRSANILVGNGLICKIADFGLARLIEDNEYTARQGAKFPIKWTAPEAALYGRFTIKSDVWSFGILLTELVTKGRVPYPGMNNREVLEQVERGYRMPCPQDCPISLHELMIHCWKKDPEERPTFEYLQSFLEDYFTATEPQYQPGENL

[17] = biological target: Vascular endothelial growth factor receptor 1 (Homo sapiens, UniProt P17948); assay type: functional;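 further: measured within a kinome-wide profiling panel, FLT1 as the panel member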
[18] = biological target: Macrophage colony-stimulating factor 1 receptor (Homo sapiens, UniProt P07333); assay type: functional;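 further: value comes from the Navigating the Kinome screening panel, CSF1R member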
[19] = biological target: Delta-type opioid receptor (Homo sapiens, UniProt P41143); test: Counterscreen for agonists of heterodimerization of the mu 1 (OPRM1) and delta 1 (OPRD1) opioid receptors: Luminescence-based cell-based high throughput dose response assay to identify agonists of OPRD1 homodimerization. [Related pubchem assays (depositor defined):AID504326, AID504355, AID504692, AID504904, AID504905]; assay type: functional
Mu-type opioid receptor = Mu-type opioid receptor (Homo sapiens, UniProt P35372); test: Counterscreen for agonists of heterodimerization of the mu 1 (OPRM1) and delta 1 (OPRD1) opioid receptors: Luminescence-based cell-based high throughput dose response assay to identify agonists of OPRM1 homodimerization.; assay type: functional;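 further: U2OS cells expressing OPRM1 and beta-arrestin as split beta-galactosidase partners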
[20] = biological target: 5-hydroxytryptamine receptor 5A (Homo sapiens, UniProt P47898); test: Counterscreen for agonists of OPRM1-OPRD1 heterodimerization: luminescence-based cell-based high throughput dose response assay to identify agonists of 5-hydroxytryptamine (serotonin) 5A receptor (HTR5A). [Related pubchem assays (depositor defined):AID504326, AID504355, AID504692, AID504904, AID504905]; assay type: functional
[21] = biological target: T1, High affinity choline transporter 1 (Homo sapiens, UniProt Q9GZV3); test: human choline transporter potentiators, potency – cell-based, 10-point CRC, membrane potential dye, dose response (AID 602376); assay type: functional
T1 sequence (Q9GZV3 whole entry): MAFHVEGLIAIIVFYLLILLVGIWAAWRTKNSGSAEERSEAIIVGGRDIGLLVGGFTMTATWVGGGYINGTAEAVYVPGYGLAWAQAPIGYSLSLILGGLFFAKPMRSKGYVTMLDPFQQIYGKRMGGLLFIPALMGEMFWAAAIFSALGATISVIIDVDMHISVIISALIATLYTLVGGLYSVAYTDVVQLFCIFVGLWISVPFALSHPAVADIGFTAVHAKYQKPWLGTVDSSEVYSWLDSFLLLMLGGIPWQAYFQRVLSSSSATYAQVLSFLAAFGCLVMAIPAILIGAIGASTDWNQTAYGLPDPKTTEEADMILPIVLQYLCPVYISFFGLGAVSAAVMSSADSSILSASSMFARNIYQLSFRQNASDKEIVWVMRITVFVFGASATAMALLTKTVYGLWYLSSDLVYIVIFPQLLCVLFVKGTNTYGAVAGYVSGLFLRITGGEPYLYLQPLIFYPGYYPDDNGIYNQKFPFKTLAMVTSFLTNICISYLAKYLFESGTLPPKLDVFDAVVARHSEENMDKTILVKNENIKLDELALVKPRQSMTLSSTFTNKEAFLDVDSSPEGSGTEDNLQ

[22] = general mammalian cell viability loss – activator set, cherry-pick, cytotoxicity control for miR-122 modulator project, dose response (AID 720690); assay type: functional, cell-based;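 further: HEK293T human cells scored for general mammalian cytotoxicity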
[23] = biological target: Sphingosine 1-phosphate receptor 2 (Homo sapiens, UniProt O95136); test: Late-stage fluorescence-based dose-response cell-based counterscreen assay to identify agonists of the Sphingosine 1-Phosphate Receptor 3 (S1P3): Sphingosine 1-Phosphate Receptor 2 (S1P2) agonist assay.; assay type: functional
[24] = biological target: Sphingosine 1-phosphate receptor 4 (Homo sapiens, UniProt O95977); test: Late-stage fluorescence-based dose-response cell-based counterscreen assay to identify agonists of the Sphingosine 1-Phosphate Receptor 3 (S1P3): Sphingosine 1-Phosphate Receptor 4 (S1P4) agonist assay.; assay type: functional
Chain of Sphingosine 1-phosphate receptor 4 (O95977 whole entry): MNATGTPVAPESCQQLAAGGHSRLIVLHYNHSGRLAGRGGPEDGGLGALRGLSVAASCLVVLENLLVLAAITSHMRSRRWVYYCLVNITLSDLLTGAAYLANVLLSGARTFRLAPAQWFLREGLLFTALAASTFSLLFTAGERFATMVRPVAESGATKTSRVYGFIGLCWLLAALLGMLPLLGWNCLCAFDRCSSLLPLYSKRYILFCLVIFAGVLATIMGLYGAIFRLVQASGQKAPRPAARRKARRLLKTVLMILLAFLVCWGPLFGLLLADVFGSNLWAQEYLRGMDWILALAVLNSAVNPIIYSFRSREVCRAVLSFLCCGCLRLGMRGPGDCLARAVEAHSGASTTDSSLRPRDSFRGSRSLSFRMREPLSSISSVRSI

## COc1cc(-c2oc3cc(O)cc(O)c3c(=O)c2O[C@@H]2O[C@H](COC3O[C@@H](C)[C@H](O)[C@@H](O)[C@H]3O)[C@@H](O)[C@H](O)[C@H]2O)ccc1O (stereo not given in full)
[1]
  AC50: 4.62 µM (active)
[2]
  AC50: 7.96 µM (active)

## O=C(CSc1nc(O)c2ccccc2n1)NCc1ccc(Cl)cc1
[3]
  CC50: > 100 µM (active)
[4]
  CC50: > 100 µM (active)
[5]
  CC50: > 100 µM (active)
[6]
  CC50: > 100 µM (active)

## Nc1n[nH]c2cccc(-c3ccc(NC(=O)Nc4cccc(C(F)(F)F)c4)c(F)c3)c12
[7]
  Ki: 0.2 µM (active)
[8]
  Ki: 0.00251 µM (active)
[9]
  Ki: 0.0398 µM (active)
[10]
  Ki: 0.251 µM (active)
[11]
  Ki: 0.158 µM (active)
[12]
  Ki: 0.00316 µM (active)
[13]
  Ki: 0.316 µM (active)
[14]
  Ki: 0.000794 µM (active)
[15]
  Ki: 0.00316 µM (active)
[16]
  Ki: 0.1 µM (active)
[17]
  Ki: 0.000316 µM (active)
[18]
  Ki: 0.00316 µM (active)

## COc1ccc(CN2CCc3c([nH]c4ccccc34)C2)c(OC)c1C
[19]
  EC50: 74.3 µM (inactive)
Mu-type opioid receptor
  EC50: > 30.8 µM (inactive)
[20]
  EC50: 47.6 µM (inactive)
[21]
  EC50: 8.4 µM (active)
[22]
  AC50: 1.68 µM (active)

## CC1CCCCC1N(C(=O)c1cc(C2CC2)on1)C1CCCCC1C (stereo not given)
[23]
  EC50: > 50 µM (inactive)
[24]
  EC50: > 50 µM (inactive)
